# Measurements from patent publication US12612360B2 (Sanofi, priority 2020, dated 2026).
# Biological target: T1, ERα (Homo sapiens, UniProt P03372)
# T1 construct: host or cells: MCF7
# T1 sequence (P03372 1-595): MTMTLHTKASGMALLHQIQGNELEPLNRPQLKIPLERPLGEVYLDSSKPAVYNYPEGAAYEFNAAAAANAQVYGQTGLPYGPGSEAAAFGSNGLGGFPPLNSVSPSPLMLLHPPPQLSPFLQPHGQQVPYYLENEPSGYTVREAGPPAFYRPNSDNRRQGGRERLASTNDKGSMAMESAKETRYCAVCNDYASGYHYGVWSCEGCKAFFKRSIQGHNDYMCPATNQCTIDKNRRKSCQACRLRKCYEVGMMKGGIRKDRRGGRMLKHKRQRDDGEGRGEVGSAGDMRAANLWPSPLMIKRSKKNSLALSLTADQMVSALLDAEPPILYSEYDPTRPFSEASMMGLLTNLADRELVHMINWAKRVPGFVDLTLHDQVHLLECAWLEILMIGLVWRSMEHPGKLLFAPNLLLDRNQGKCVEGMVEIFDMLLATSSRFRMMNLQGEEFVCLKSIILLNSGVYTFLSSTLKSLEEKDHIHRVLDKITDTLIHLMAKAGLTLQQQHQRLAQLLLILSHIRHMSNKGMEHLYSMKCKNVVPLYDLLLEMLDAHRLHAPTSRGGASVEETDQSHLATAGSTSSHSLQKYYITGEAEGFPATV
# Experiment: Estrogen receptor degradation activity: breast cancer cell ERα in cell western assay (MCF7 cells)
# Assay type: cell-based
# Settings: for % Degradation At 0.3 μM: 4 hours, relative to fulvestrant 0.1 μM positive control; for DC50: 4 hours post compound addition, concentration which degrades 50% of the estrogen receptor, read-out: Degradation IC50
# Procedure, shortened: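 In-cell western readout: ERα immunofluorescence (Alexa 488) normalised to DNA signal (Syto-64) after formalin fixation. Compounds dosed for 4 h on MCF7 cells in stripped-serum, phenol-red-free medium over nine 1:5 steps, 0.3 to […] final; fulvestrant 0.1 μM control. IC50 in nM for 50% ERα degradation.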
% Degradation At 0.3 μM [%],DC50 [pM],SMILES
92,400,"Cc1ccc(C2=C(c3ccc(C=C4CN(CCCF)C4)cc3)c3ccc(C(=O)O)cc3CCC2)c(C)c1 [Example 77, 8-(2,4-dimethylphenyl)-9-(4-((1-(3-fluoropropyl)azetidin-3-ylidene)methyl)phenyl)-6,7-dihydro-5H-benzo[7]annulene-3-carboxylic acid]"
98,400,"Cc1c(C2=C(c3ccc(C=C4CN(CCCF)C4)cc3)c3ccc(C(=O)O)cc3CCC2)ccc(Cl)c1F [Example 81, 8-(4-chloro-3-fluoro-2-methylphenyl)-9-(4-((1-(3-fluoropropyl)azetidin-3-ylidene)methyl)phenyl)-6,7-dihydro-5H-benzo[7]annulene-3-carboxylic acid]"
90,500,"Cc1c(Cl)ccc(C2=C(c3ccc(C=C4CN(CCCF)C4)cc3)c3ccc(C(=O)O)cc3CCC2)c1C [Example 82, 8-(4-chloro-2,3-dimethylphenyl)-9-(4-((1-(3-fluoropropyl)azetidin-3-ylidene)methyl)phenyl)-6,7-dihydro-5H-benzo[7]annulene-3-carboxylic acid]"
94,200,"Cc1c(F)cccc1C1=C(c2ccc(C=C3CN(CCCF)C3)cc2)c2ccc(C(=O)O)cc2CCC1 [Example 85, 8-(3-fluoro-2-methylphenyl)-9-(4-((1-(3-fluoropropyl)azetidin-3-ylidene)methyl)phenyl)-6,7-dihydro-5H-benzo[7]annulene-3-carboxylic acid]"
94,400,"Cc1c(F)ccc(C2=C(c3ccc(C=C4CN(CCCF)C4)cc3)c3ccc(C(=O)O)cc3CCC2)c1C [Example 87, 8-(4-fluoro-2,3-dimethylphenyl)-9-(4-((1-(3-fluoropropyl)azetidin-3-ylidene)methyl)phenyl)-6,7-dihydro-5H-benzo[7]annulene-3-carboxylic acid]"
98,200,"Cc1cc(Cl)ccc1C1=C(c2ccc(C=C3CN(CCCF)C3)cc2)c2ccc(C(=O)O)cc2CCC1 [Example 89, 8-(4-chloro-2-methylphenyl)-9-(4-((1-(3-fluoropropyl)azetidin-3-ylidene)methyl)phenyl)-6,7-dihydro-5H-benzo[7]annulene-3-carboxylic acid]"
96,200,"Cc1cccc(C2=C(c3ccc(C=C4CN(CCCF)C4)cc3)c3ccc(C(=O)O)cc3CCC2)c1C [Example 94, 8-(2,3-dimethylphenyl)-9-(4-((1-(3-fluoropropyl)azetidin-3-ylidene)methyl)phenyl)-6,7-dihydro-5H-benzo[7]annulene-3-carboxylic acid]"

# Second part, the molecule before the results:
SMILES,% Degradation At 0.3 μM [%],DC50 [pM]
"Cc1cc(C2=C(c3ccc(Cl)cc3Cl)CCCc3cc(C(=O)O)ccc32)cc(F)c1C=C1CN(CCCF)C1.Cl [Example 71, 8-(2,4-dichlorophenyl)-9-(3-fluoro-4-((1-(3-fluoropropyl)azetidin-3-ylidene)methyl)-5-methylphenyl)-6,7-dihydro-5H-benzo[7]annulene-3-carboxylic acid hydrochloride]",101,200
"Cc1c(Cl)cccc1C1=C(c2ccc(C=C3CN(CCCF)C3)cc2)c2ccc(C(=O)O)cc2CCC1 [Example 72, 8-(3-chloro-2-methylphenyl)-9-(4-((1-(3-fluoropropyl)azetidin-3-ylidene)methyl)phenyl)-6,7-dihydro-5H-benzo[7]annulene-3-carboxylic acid]",97,300
"O=C(O)c1ccc2c(c1)CCCC(c1ccc(Cl)cc1Cl)=C2c1c(F)cc(C=C2CN(CCCF)C2)cc1F [Example 73, 8-(2,4-dichlorophenyl)-9-(2,6-difluoro-4-((1-(3-fluoropropyl)azetidin-3-ylidene)methyl)phenyl)-6,7-dihydro-5H-benzo[7]annulene-3-carboxylic acid]",98,300
"Cc1c(C=C2CN(CCCF)C2)ccc(C2=C(c3ccc(Cl)cc3Cl)CCCc3cc(C(=O)O)ccc32)c1F.Cl [Example 74, 8-(2,4-dichlorophenyl)-9-(2-fluoro-4-((1-(3-fluoropropyl)azetidin-3-ylidene)methyl)-3-methylphenyl)-6,7-dihydro-5H-benzo[7]annulene-3-carboxylic acid hydrochloride]",92,500
"COc1ccc(C2=C(c3ccc(C=C4CN(CCCF)C4)cc3)c3ccc(C(=O)O)cc3CCC2)c(Cl)c1 [Example 75, 8-(2-chloro-4-methoxyphenyl)-9-(4-((1-(3-fluoropropyl)azetidin-3-ylidene)methyl)phenyl)-6,7-dihydro-5H-benzo[7]annulene-3-carboxylic acid]",92,1100
"Cc1cccc(C2=C(c3ccc(C=C4CN(CCCF)C4)cc3)c3ccc(C(=O)O)cc3CCC2)c1Cl [Example 76, 8-(2-chloro-3-methylphenyl)-9-(4-((1-(3-fluoropropyl)azetidin-3-ylidene)methyl)phenyl)-6,7-dihydro-5H-benzo[7]annulene-3-carboxylic acid]",94,500
"O=C(O)c1ccc2c(c1)CCCC(c1cccc(F)c1Cl)=C2c1ccc(C=C2CN(CCCF)C2)cc1 [Example 78, 8-(2-chloro-3-fluorophenyl)-9-(4-((1-(3-fluoropropyl)azetidin-3-ylidene)methyl)phenyl)-6,7-dihydro-5H-benzo[7]annulene-3-carboxylic acid]",93,600
"O=C(O)c1ccc2c(c1)CCCC(c1ccc(F)cc1Cl)=C2c1ccc(C=C2CN(CCCF)C2)cc1 [Example 79, 8-(2-chloro-4-fluorophenyl)-9-(4-((1-(3-fluoropropyl)azetidin-3-ylidene)methyl)phenyl)-6,7-dihydro-5H-benzo[7]annulene-3-carboxylic acid]",97,400
"Cl.O=C(O)c1ccc2c(c1)CCCC(c1ccc(Cl)cc1Cl)=C2c1ccc(C=C2CN(CCCF)C2)c(F)c1F [Example 80, 8-(2,4-dichlorophenyl)-9-(2,3-difluoro-4-((1-(3-fluoropropyl)azetidin-3-ylidene)methyl)phenyl)-6,7-dihydro-5H-benzo[7]annulene-3-carboxylic acid hydrochloride]",98,600
"Cc1cc(Cl)cc(C)c1C1=C(c2ccc(C=C3CN(CCCF)C3)cc2)c2ccc(C(=O)O)cc2CCC1 [Example 83, 8-(4-chloro-2,6-dimethylphenyl)-9-(4-((1-(3-fluoropropyl)azetidin-3-ylidene)methyl)phenyl)-6,7-dihydro-5H-benzo[7]annulene-3-carboxylic acid]",93,400
"Cc1cc(C#N)ccc1C1=C(c2ccc(C=C3CN(CCCF)C3)cc2)c2ccc(C(=O)O)cc2CCC1 [Example 84, 8-(4-cyano-2-methylphenyl)-9-(4-((1-(3-fluoropropyl)azetidin-3-ylidene)methyl)phenyl)-6,7-dihydro-5H-benzo[7]annulene-3-carboxylic acid]",92,2100
"CCc1ccccc1C1=C(c2ccc(C=C3CN(CCCF)C3)cc2)c2ccc(C(=O)O)cc2CCC1 [Example 86, 8-(2-ethylphenyl)-9-(4-((1-(3-fluoropropyl)azetidin-3-ylidene)methyl)phenyl)-6,7-dihydro-5H-benzo[7]annulene-3-carboxylic acid]",92,200
"Cc1cc(F)cc(C)c1C1=C(c2ccc(C=C3CN(CCCF)C3)cc2)c2ccc(C(=O)O)cc2CCC1 [Example 90, 8-(4-fluoro-2,6-dimethylphenyl)-9-(4-((1-(3-fluoropropyl)azetidin-3-ylidene)methyl)phenyl)-6,7-dihydro-5H-benzo[7]annulene-3-carboxylic acid]",93,200
"Cc1c(C#N)cccc1C1=C(c2ccc(C=C3CN(CCCF)C3)cc2)c2ccc(C(=O)O)cc2CCC1 [Example 91, 8-(3-cyano-2-methylphenyl)-9-(4-((1-(3-fluoropropyl)azetidin-3-ylidene)methyl)phenyl)-6,7-dihydro-5H-benzo[7]annulene-3-carboxylic acid]",87,900
"Cl.O=C(O)c1ccc2c(c1)CCCC(c1ccc(Cl)cc1Cl)=C2c1cc(F)c(C=C2CN(CCCF)C2)cc1F [Example 92, 8-(2,4-dichlorophenyl)-9-(2,5-difluoro-4-((1-(3-fluoropropyl)azetidin-3-ylidene)methyl)phenyl)-6,7-dihydro-5H-benzo[7]annulene-3-carboxylic acid hydrochloride]",98,300
"Cc1cc(C=C2CN(CCCF)C2)ccc1C1=C(c2ccc(Cl)cc2Cl)CCCc2cc(C(=O)O)ccc21.Cl [Example 93, 8-(2,4-dichlorophenyl)-9-(4-((1-(3-fluoropropyl)azetidin-3-ylidene)methyl)-2-methylphenyl)-6,7-dihydro-5H-benzo[7]annulene-3-carboxylic acid hydrochloride]",97,600
